Assay results as given in PMC11395096, “Study of Pentacyclic Triterpenes from Lyophilised Aguaje: Anti-Inflammatory and Antioxidant Properties” (International Journal of Molecular Sciences, 2024).
Where a name gives a salt, the structure may show the parent alone.

What was measured:
RAW 264.7 cell line = experiment: NR (neutral red) viability assay, RAW 264.7 cells; type: cell-based, Mus musculus; settings: RAW 264.7, 72 h, compounds series
Source text: (§1) The IC-21 (Mus musculus macrophage cells, TIB-186) and RAW 264.7 (Mus musculus macrophage cells, TIB-71) cell lines used in this study were obtained from the American Type Culture Collection (ATCC, Manassas, VA, USA). The selection of IC-21 and RAW 264.7 cell lines for studies on inflammation and antioxidant activity is based on two main reasons: the cell type and their origin. Firstly, both IC-21 and RAW 264.7 cell lines are macrophages, which play a crucial role in the immune system, being essential for the inflammatory response and regulation of oxidative stress. These cells have the capacity to produce pro-inflammatory cytokines, express transcription factors such as NF-κB, and generate NO, making them ideal models to understand inflammatory mechanisms. Moreover, macrophages are involved in the activation of Nrf2, a transcription factor critical for the antioxidant response, allowing these cell lines to enable a comprehensive assessment of antioxidant activity within an inflammatory context.
(§2) Cultivated in a Roswell Park Memorial Institute (RPMI) 1640 medium (RPMI 1640 Sigma-Aldrich, CAS No. R7755, St. Louis, MO, USA) supplemented with 2 mM L-glutamine (≥99% Sigma-Aldrich, CAS No. 56-85-9, St. Louis, MO, USA), 10% foetal bovine serum (FBS Sigma-Aldrich, CAS No. TMS-016, St. Louis, MO, USA), and 10,000 units of penicillin and 10 mg streptomycin mL^−1 (Sigma-Aldrich, CAS No. P4333, St. Louis, MO, USA) in culture flasks, the cells were maintained in an incubator under normoxic conditions (20–21% O2) and a humidified atmosphere (5% CO2, at 37 °C).
(§3) Stock solutions of the samples (extracts and compounds) were prepared at a concentration of 1 mM using dimethyl sulfoxide (DMSO ≥ 99.9% Sigma-Aldrich, CAS No. 67-68-5, St. Louis, MO, USA) as the solvent. Dilutions from these stock solutions were then made to achieve concentrations between 100 and 0.20 μg mL^−1 or μM in the culture medium, which contained 0.5% DMSO. A control group consisting only of the culture medium with 0.5% DMSO was also included to determine its potential cytotoxicity.
(§4) The 50% cytotoxic concentration (CC50), 50% inhibitory concentration (IC50), and half-maximal effective concentration (EC50) values were calculated using the sigmoidal dose–response function. All experiments were conducted in triplicate, and the data obtained were expressed as the mean and standard deviation. A two-way analysis of variance (ANOVA) combined with Dunnett’s multiple comparisons test (p < 0.001) was performed for the cytotoxicity, NF-κB inhibition, NO inhibition and Nrf2 activation assays, while a one-way ordinary ANOVA combined with Dunnett’s multiple comparisons test (p < 0.001) was conducted for the SOD assay. All statistical analyses were performed using GraphPad Prism version 10.0.0 (La Jolla, CA, USA, www.graphpad.com, accessed on 28 August 2024).
(§5) Cell viability was evaluated using a colorimetric assay in 96-well plates, employing 3-amino-7-dimethylamino-2-methylphenazine hydrochloride salt reagent (NR, Sigma-Aldrich, CAS No. 553-24-2, St. Louis, MO, USA). ACTD (≥95% Sigma-Aldrich, CAS No. 50-76-0, St. Louis, MO, USA) was used as a positive control, with a CC50 value of 0.01 μg mL^−1 for the extracts, or 0.008 μM for the compounds. The IC-21 and RAW 264.7 cell lines were cultured in 96-well plates at 37 °C with 5% CO2 until >90% confluency was achieved (1 × 10^4 cells per well). Subsequently, the cultures were treated with sample dilutions (100–0.20 μg mL^−1 or μM) for 72 h at 37 °C with 5% CO2 in phenol red-free RPMI. The supernatant was then discarded, and the cells were washed with phosphate-buffered saline (PBS) before being incubated with […] NR (50 μg mL^−1; 173 μM) for 3 h at 37 °C with 5% CO2. NR labelling was performed after DMSO treatment. […]

[1] = NR (neutral red) viability assay, RAW 264.7 cells; type: cell-based, Mus musculus; settings: mouse, RAW 264.7 macrophage cells, RAW 264.7, 72 h, compounds series
Source text: as §1, §2, §3, §4, §5

[2] = NR (neutral red) viability assay, IC-21 cells; type: cell-based, Mus musculus; settings: mouse, IC-21 macrophage cells, IC-21, 72 h, compounds series
Source text: as §1, §2, §3, §4, §5

[3] = biological target: Superoxide Dismutase (SOD); experiment: SOD activation assay (kit); type: biochemical; settings: 72 h; for EC50: compounds series
Method: as §4
To determine the antioxidant response of the samples (at the same concentration as in the viability assay), the SOD activation assay kit (Sigma-Aldrich, CAS No. MAK528, St. Louis, MO, USA) was used, implementing the protocol adapted from Vincent et al.. […] Absorbance was measured at 450 nm using a microplate reader.

NF-κB [4] = experiment: NF-κB inhibition assay, LPS-stimulated RAW 264.7 cells; type: cell-based, Mus musculus; settings: RAW 264.7, + LPS 100 μg mL^−1, 72 h; for IC50: compounds series, read-out: Inhibition of NF-κB production IC50
Source text: as §1, §3, §4
(§6) To assess the anti-inflammatory potential of the samples at the same concentrations used in the cell viability assay, an NF-κB inhibition assay was used following the approach established by Apaza Ticona et al.. Cells were seeded in 96-well plates at a density of 3 × 10^3 cells per well. […] Absorbance was quantified at 450 nm using a microplate reader.

NO production [5] = experiment: NO inhibition assay, LPS-stimulated IC-21 cells; type: cell-based, Mus musculus; settings: IC-21, + LPS 100 μg mL^−1, 72 h
Source text: as §1, §3, §4
(§7) To determine the anti-inflammatory activity of the samples (at the same concentration as in the viability assay), the […] was used, implementing the protocol adapted from Guo et al.. Cells were cultured in 96-well plates (1 × 10^4 cells per well). […] Absorbance was measured at 540 nm using a microplate reader.

NF-κB [6] = experiment: NF-κB inhibition assay, LPS-stimulated IC-21 cells; type: cell-based, Mus musculus; settings: IC-21, + LPS 100 μg mL^−1, 72 h; for IC50: compounds series, read-out: Inhibition of NF-κB production IC50
Source text: as §1, §3, §4, §6

NO production [7] = experiment: NO inhibition assay, LPS-stimulated RAW 264.7 cells; type: cell-based, Mus musculus; settings: RAW 264.7, + LPS 100 μg mL^−1, 72 h
Source text: as §1, §3, §4, §7

Nrf2 [8] = experiment: Nrf2 activation assay, RAW 264.7 cells; type: cell-based, Mus musculus; settings: RAW 264.7, 72 h, read-out: Activation of Nrf2 production EC50
Source text: as §1, §3, §4
(§8) To determine the antioxidant response of the samples (at the same concentration as in the viability assay), the Nrf2 activation assay was used following the protocol carried out by Apaza Ticona et al.. Cells were cultured in 96-well plates (1 × 10^4 cells per well). […] Absorbance was measured at 540 nm using a microplate reader.

Nrf2 [9] = experiment: Nrf2 activation assay, IC-21 cells; type: cell-based; settings: Mus musculus, 72 h, IC-21, 72 h, read-out: Activation of Nrf2 production EC50
Source text: as §1, §3, §4, §8

IC-21 cell line = experiment: NR (neutral red) viability assay, IC-21 cells; type: cell-based, Mus musculus; settings: IC-21, 72 h, compounds series
Source text: as §1, §2, §3, §4, §5

Nrf2 [10] = experiment: Nrf2 activation assay, value not assigned to one cell line; type: cell-based, Mus musculus
Method: as §8

NF-κB [11] = experiment: NF-κB inhibition assay, value not assigned to one cell line; type: cell-based; settings: Mus musculus
Method: as §6

NO production [12] = experiment: NO inhibition assay, value not assigned to one cell line; type: cell-based; settings: Mus musculus
Method: as §7

NF-κB [13] = test system: NF-κB; set-up: method as in PMID 24853120, PMID 15668926; settings: cited from earlier work
[14] = Mus musculus, 72 h, compounds series
[15] = Mus musculus, RAW264.7, 72 h, compounds series
[16] = Mus musculus, RAW264.7, across IC-21 and RAW 264.7 / cell line not stated, compounds series
[17] = RAW264.7, across IC-21 and RAW 264.7 / cell line not given, compounds series
[18] = Mus musculus, RAW264.7, 72 h, extracts series

Compound	CC50 (RAW 264.7 cell line) [µM]	CC50 at 72 h [1] [µM]	CC50 at 72 h [2] [µM]	EC50 [3] [µM]	IC50 (NF-κB [4]; Mus musculus, RAW264.7, 72 h) [µM]	IC50 (NO production [5]; [14]) [µM]	IC50 (NF-κB [6]; Mus musculus, 72 h) [µM]	IC50 (NO production [7]; [15]) [µM]	EC50 (Nrf2 [8]; [15]) [µM]	EC50 (Nrf2 [9]; compounds series) [nM]	other results
CC(=O)O[C@H]1CC[C@]2(C)[C@H]3C(=O)C=C4[C@@H]5[C@@H](C)[C@H](C)CC[C@]5(C(=O)O)CC[C@@]4(C)[C@]3(C)CC[C@H]2C1(C)C [compound 2, (3β)-3-acetyloxy-11-oxours-12-en-28-oic acid]	84.9	84.9	78.5	7.43	20	11.3	13.4	15.5	0.772	524	
C[C@H]1[C@H](C)CC[C@]2(C(=O)O)CC[C@]3(C)C(=CC(=O)[C@@H]4[C@@]5(C)CCC(=O)C(C)(C)[C@@H]5CC[C@]43C)[C@H]12 [compound 1, 3,11-dioxours-12-en-28-oic acid]	75.4	75.4	67.6	1.87	8.11	4.75	7.39	6.59	0.548	243	CC50 (IC-21 cell line): 67.6 µM; EC50 (Nrf2 [10]; [16]): 243 to 548 nM; IC50 (NF-κB [11]; RAW264.7, across IC-21 and RAW 264.7 / cell line not given, compounds series, read-out: NF-κB inhibition IC50): 7.39 to 8.11 µM; EC50 (Nrf2 [8]; compounds series): 0.548 µM; IC50 (NO production [12]; [17]): 4.75 to 6.59 µM
C[C@H]1[C@H](C)CC[C@]2(C(=O)O)CC[C@]3(C)C(=CC(=O)[C@@H]4[C@@]5(C)CC[C@H](O)C(C)(C)[C@@H]5CC[C@]43C)[C@H]12 [compound 3, (3β)-3-hydroxy-11-oxours-12-en-28-oic acid]	92.4	92.4	88.5	13.2	27.1	16.6	21	24.8	1.14	1030	CC50 (IC-21 cell line): 88.5 µM
O=C(O)c1cc(O)c(O)c(O)c1 [GA, gallic acid, reference compound]				12.1							SOD activation EC50 ([3]; extracts series): 2.06 µg/mL
COc1cc(/C=C/C(=O)CC(=O)/C=C/c2ccc(O)c(OC)c2)ccc1O [curcumin]											concentration capable of inhibiting NF-κB activation (NF-κB [13]): 10 to 50 µM
[H]/N=C(/NC)NCCC[C@H](N)C(=O)O [LNMMA, N^G-methyl-L-arginine acetate salt]						6.43		6.83			IC50 (NO production [5]; Mus musculus, 72 h, extracts series): 1.57 µg/mL; IC50 (NO production [7]; [18]): 1.64 µg/mL; IC50 (NO production [12]; [17]): 6.63 µM; IC50 (NO production [12]; cell line not stated, extracts series): 1.61 µg/mL
COC(=O)[C@]12CCC(C)(C)C[C@H]1[C@H]1C(=O)C=C3[C@@]4(C)C=C(C#N)C(=O)C(C)(C)[C@@H]4CC[C@@]3(C)[C@]1(C)CC2 [CDDO-Me, bardoxolone methyl, reference compound]									0.00013	0.09	EC50 (Nrf2 [10]; [16]): 0.09 to 0.13 nM; EC50 (Nrf2 [10]; Mus musculus, cell line not stated, extracts series): 0.07 ng/mL; EC50 (Nrf2 [10]; across IC-21 and RAW 264.7 / cell line not given, compounds series): 0.11 nM; EC50 (Nrf2 [8]; [18]): 0.08 ng/mL; EC50 (Nrf2 [9]; extracts series): 0.05 ng/mL
lipopolysaccharide [LPS, reference compound]											IC50 (NF-κB [4]): 99.2 µM; Inhibition of NF-κB production IC50 (NF-κB [4]; extracts series): 98.7 µg/mL; IC50 (NO production [5]; compounds series): 97 µM; Inhibition of NO production IC50 (NO production [5]; extracts series): 95.2 µg/mL; IC50 (NF-κB [6]): 95.8 µM; Inhibition of NF-κB production IC50 (NF-κB [6]; extracts series): 97.5 µg/mL; IC50 (NO production [7]; compounds series): 98.3 µM; Inhibition of NO production IC50 (NO production [7]; extracts series): 97.2 µg/mL
CC1=C(O)C(=O)C=C2C1=CC=C1[C@@]2(C)CC[C@@]2(C)[C@@H]3C[C@](C)(C(=O)O)CC[C@]3(C)CC[C@]12C [CEL, celastrol]											IC50 (NF-κB [11]; RAW264.7, read-out: NF-κB inhibition IC50): 7.41 µM; IC50 (NF-κB [11]; read-out: NF-κB inhibition IC50): 3.34 µg/mL
O=c1c(O)c(-c2ccc(O)c(O)c2)oc2cc(O)cc(O)c12 [quercetin]											concentration capable of inhibiting NF-κB activation (NF-κB [13]): 25 to 100 µM
